Measured values as given in paper PMC8894927, “Oxylipin signaling in salt-stressed soybean is modulated by ligand-dependent interaction of Class II acyl-CoA-binding proteins with lipoxygenase” (The Plant Cell, 2021).
Values joined by “and” are separate entries in the source; they are usually repeats but may differ in a detail not shown here. Equal entries are not always repeated. Values belong to the molecule of their own block, whether it stands above or below them.

How the values were obtained:
(His)6-GmACBP4.1_33–354 [1] = assay: Protein–lipid overlay assay; type: binding, soybean; conditions: commercial strips and PA-spotted nitrocellulose strips; 0.5 μg mL−1 protein
(His)6-GmACBP4.1_33–354 [2] = assay: Liposome association assay for PA binding; design: species or system soybean; conditions: PA:di-16:0-PC liposomes, 0–100% (w/w) PA
(His)6-GmACBP4.1_33–354 [3] = assay: Isothermal titration calorimetry of acyl-CoA binding (WT protein); design: species or system soybean; conditions: ITC at 25°C; 15 μM protein titrated with 200 μM acyl-CoA; mean ± SD, three experiments; read-out: KD, dissociation constant
Experimental: ITC was conducted with a MicroCal iTC200 system (GE Healthcare) at 25°C in 10 mM sodium phosphate (pH 7) by 20 injections of 1.8-μL acyl-CoAs (200 μM; Avanti Polar Lipids Inc., Alabaster, AL, USA) into the sample cell with 15 μM purified (His)6-GmACBP4.1. Each injection lasted 4 s at 150-s intervals with a stirring speed of 1,000 rpm. Nonspecific heat effects were estimated and corrected after saturation. The baseline was adjusted, and the data were fitted into a single-site binding model using the Origin version 7.0 software (OriginLab).
Supplemental Table 1. Binding constants and thermodynamic parameters for (His)6-GmACBP4.133–354 interaction with acyl-CoAs. (Supports Figure 5A) […]
Isothermal titration calorimetry analysis was performed by titration of 250 μL of 15 μM (His)6-GmACBP4.133–354 with […]
from three independent experiments. n, stoichiometry (number of ligand sites per protein); KD, dissociation constant; ∆H, enthalpy change; −T∆S, entropy change; ∆G, Gibbs free energy.

[4] = test system: GmACBP4.1_33–354 interaction with VLXB:StrepII; assay: Strep-Tactin pull-down assay with supplemented acyl-CoAs; type: binding, soybean
[5] = test system: GmACBP4.1_33–354 interaction with GmPLDα1:StrepII; assay: as above; type: binding, soybean; conditions: acyl-CoA 12.5–100 μM, versus control without acyl-CoA
Description: Figure 6 Specific acyl-CoA species facilitate GmACBP4 interaction with VLXB and GmPLDα1. A, Strep-Tactin pull-down assays. […] (His)6-GmACBP4.1_33–354 were detected in eluates by immunoblotting using anti-ACBP3 antibodies. […] Input lanes represent 1% protein. Arrowheads indicate target bands of 40-kD (His)6-GmACBP4.1_33–354 (apparent: 50 kD). The bound protein fraction was quantified densitometrically. […] B–C, Strep-Tactin pull-down assays with supplemented acyl-CoAs. […] Input lanes represent 5% proteins in (B) or 10% proteins in (C). Arrowheads indicate target bands of 40-kD (His)6-GmACBP4.1_33–354 (apparent: 50kD).
Strep-Tactin pull-down assays were performed using Strep-Tactin XT resins (IBA) following the manufacturer’s instructions. Briefly, 5 μL of resins with/without prebound VLXB:StrepII or GmPLDα1:StrepII (0.5 μM) were agitated with GmACBP4.1_33–354 (0.5 μM) and acyl-CoAs (0, 12.5, 25, 50, and 100 μM) in Buffer W containing 0.1 M Tris–HCl (pH 7), 0.15 M NaCl, 1 mM EDTA and 0.05% (w/v) Triton X-100 at 4°C for 2 h. After three washes in Buffer W, bound proteins were eluted in Buffer W with 50 mM biotin, and analyzed by immunoblotting using anti-ACBP3.1 antibodies.

AtACBP1 = target: AtACBP1; design: method as in Xue et al., 2014; conditions: ref Xue et al., 2014; cited from earlier work
VLXB:StrepII [6] = target: T1, VLXB:StrepII (soybean, UniProt A0A0R0G554 1-853); assay: cell-based or functional assay
T1 sequence (looked up): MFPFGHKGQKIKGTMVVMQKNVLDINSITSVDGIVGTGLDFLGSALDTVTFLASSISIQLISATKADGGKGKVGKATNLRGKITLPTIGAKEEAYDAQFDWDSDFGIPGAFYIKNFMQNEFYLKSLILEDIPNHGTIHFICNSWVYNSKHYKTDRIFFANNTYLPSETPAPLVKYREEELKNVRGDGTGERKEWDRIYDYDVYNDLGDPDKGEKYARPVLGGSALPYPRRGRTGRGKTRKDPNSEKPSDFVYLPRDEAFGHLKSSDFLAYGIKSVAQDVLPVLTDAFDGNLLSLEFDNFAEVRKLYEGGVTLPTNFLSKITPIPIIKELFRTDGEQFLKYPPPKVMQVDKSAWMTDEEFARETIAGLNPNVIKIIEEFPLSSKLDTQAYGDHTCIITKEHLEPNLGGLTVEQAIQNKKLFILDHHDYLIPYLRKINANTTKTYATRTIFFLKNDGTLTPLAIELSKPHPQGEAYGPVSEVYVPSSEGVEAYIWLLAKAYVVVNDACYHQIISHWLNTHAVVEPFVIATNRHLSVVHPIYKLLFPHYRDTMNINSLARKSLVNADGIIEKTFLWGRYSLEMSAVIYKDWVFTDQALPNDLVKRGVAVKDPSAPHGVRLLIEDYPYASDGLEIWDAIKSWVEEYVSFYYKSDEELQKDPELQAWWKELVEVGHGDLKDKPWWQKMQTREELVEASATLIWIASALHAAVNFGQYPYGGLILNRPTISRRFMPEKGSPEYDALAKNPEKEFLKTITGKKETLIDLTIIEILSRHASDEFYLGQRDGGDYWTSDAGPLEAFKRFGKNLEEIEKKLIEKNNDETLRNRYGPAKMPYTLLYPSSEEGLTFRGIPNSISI

VLXB:StrepII [7] = target: T1, VLXB:StrepII; assay: pull-down; Strep-Tactin XT resins with prebound VLXB:StrepII or GmPLDα1:StrepII (0.5 μM) agitated with (His)6-GmACBP4.1(33-354) (0.5 μM) and acyl-CoAs (0, 12.5, 25, 50, 100 μM) in 0.1 M Tris-HCl pH 7, 0.15 M NaCl, 1 mM EDTA, 0.05% Triton X-100 at 4°C for 2 h; eluted with 50 mM biotin; immunoblot with anti-ACBP3.1 antibodies; conditions: both partners purified
GmPLDα1:StrepII = target: T2, GmPLDα1:StrepII (soybean, UniProt I1KH24 1-809); assay: as above; conditions: both partners purified
T2 construct: GmPLDα1, soybean phospholipase Dα1 (Glyma.07G031100), ORF; In pRSETA (pGM1032); the methods call these proteins (His)6/StrepII-tagged; also called soybean PHOSPHOLIPASE Dα1; source: E. coli, purified (HisTrap HP, Strep-Tactin XT); not shown: StrepII, C-terminal, kept
T2 sequence (looked up): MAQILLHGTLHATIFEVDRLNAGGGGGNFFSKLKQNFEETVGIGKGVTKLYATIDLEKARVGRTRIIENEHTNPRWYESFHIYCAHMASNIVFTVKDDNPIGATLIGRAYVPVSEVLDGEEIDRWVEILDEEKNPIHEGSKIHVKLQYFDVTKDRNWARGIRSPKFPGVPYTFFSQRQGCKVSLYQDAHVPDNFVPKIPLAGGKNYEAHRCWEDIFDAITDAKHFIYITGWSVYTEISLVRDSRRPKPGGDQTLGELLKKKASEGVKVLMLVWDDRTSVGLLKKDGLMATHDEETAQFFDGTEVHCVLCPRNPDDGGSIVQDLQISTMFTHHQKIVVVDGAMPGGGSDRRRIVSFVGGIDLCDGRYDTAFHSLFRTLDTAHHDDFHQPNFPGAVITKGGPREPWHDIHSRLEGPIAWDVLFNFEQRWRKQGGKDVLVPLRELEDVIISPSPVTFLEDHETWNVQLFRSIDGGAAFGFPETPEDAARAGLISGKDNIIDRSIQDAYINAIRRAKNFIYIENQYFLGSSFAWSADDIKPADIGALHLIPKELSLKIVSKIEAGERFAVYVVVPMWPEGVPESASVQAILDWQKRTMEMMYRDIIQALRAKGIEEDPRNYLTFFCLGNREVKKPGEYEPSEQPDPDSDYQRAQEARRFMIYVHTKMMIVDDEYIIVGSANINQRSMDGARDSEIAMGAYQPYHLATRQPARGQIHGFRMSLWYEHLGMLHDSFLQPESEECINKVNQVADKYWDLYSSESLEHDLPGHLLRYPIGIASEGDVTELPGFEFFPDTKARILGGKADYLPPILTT

[8] = acyl-CoA 12.5–100 μM, versus control without acyl-CoA

- binding on lipid filter strips ((His)6-GmACBP4.1_33–354 [1]): lower affinity
Molecule: CCCCCCCCCCCCCCCCCC(=O)OC[C@H](COP(=O)(O)O)OC(=O)CCCCCCCCCCCCCCCCC [di-18:0-PA]
- descending order of affinity to the WT (liposome association) ((His)6-GmACBP4.1_33–354 [2]): di-16:0-PA ≈ di-18:1-PA > di-18:0-PA > di-14:0-PA

- binding on lipid filter strips ((His)6-GmACBP4.1_33–354 [1]): did not interact
Molecule: CCCCCCCCCCCCCCCC(=O)OC[C@H](COP(=O)([O-])OCC[N+](C)(C)C)OC(=O)CCCCCCCCCCCCCCC [di-16:0-phosphatidylcholine]

- Kd ((His)6-GmACBP4.1_33–354 [3]): 800 ± 100 nM
- increase in WT binding with VLXB:StrepII [4, 8]: negligible
- increase in WT binding with GmPLDα1:StrepII [5]: up to nine-fold
Molecule: CCCCCCCCCCCCCCCC(=O)SCCNC(=O)CCNC(=O)[C@H](O)C(C)(C)COP(=O)(O)OP(=O)(O)OC[C@H]1O[C@@H](n2cnc3c(N)ncnc32)[C@H](O)[C@@H]1OP(=O)(O)O [C16:0-CoA]

- binding on lipid filter strips ((His)6-GmACBP4.1_33–354 [1]): lower affinity
Molecule: CCCCCCCCCCCCCC(=O)OC[C@H](COP(=O)(O)O)OC(=O)CCCCCCCCCCCCC [di-14:0-PA]
- descending order of affinity to the WT (liposome association) ((His)6-GmACBP4.1_33–354 [2]): di-16:0-PA ≈ di-18:1-PA > di-18:0-PA > di-14:0-PA

- Kd ((His)6-GmACBP4.1_33–354 [3]): 680 ± 80 nM
- increase in WT binding with VLXB:StrepII [4, 8]: negligible
- increase in WT binding with GmPLDα1:StrepII [5]: up to nine-fold
Molecule: CCCCCCCC/C=C\CCCCCCCC(=O)SCCNC(=O)CCNC(=O)[C@H](O)C(C)(C)COP(=O)(O)OP(=O)(O)OC[C@H]1O[C@@H](n2cnc3c(N)ncnc32)[C@H](O)[C@@H]1OP(=O)(O)O [C18:1-CoA]

- Kd ((His)6-GmACBP4.1_33–354 [3]): 1170 nM and 900 to 1200 nM
- increase in WT binding with VLXB:StrepII ([4]; 100 µM acyl-CoA): nine-fold
- increase in WT binding with GmPLDα1:StrepII [5]: did not influence
Molecule: CC/C=C\C/C=C\C/C=C\CCCCCCCC(=O)SCCNC(=O)CCNC(=O)[C@H](O)C(C)(C)COP(=O)(O)OP(=O)(O)OC[C@H]1O[C@@H](n2cnc3c(N)ncnc32)[C@H](O)[C@@H]1OP(=O)(O)O [C18:3-CoA, linolenoyl-CoA]
- Kd (AtACBP1): 400 to 800 nM

Molecule: CCCCCCCCC=CCCCCCCCC(=O)OCC(COP(=O)(O)O)OC(=O)CCCCCCCC=CCCCCCCCC (stereo not drawn) [di-18:1-PA]
- descending order of affinity to the WT (liposome association) ((His)6-GmACBP4.1_33–354 [2]): di-16:0-PA ≈ di-18:1-PA > di-18:0-PA > di-14:0-PA

- IC50 of in vitro LOX activity of 100 nM VLXB:StrepII after incubation with 0.1-300 nM (His)6-GmACBP4.1(33-354) WT and 10 µM C18:2-CoA (VLXB:StrepII [6]): 8.5 nM
- IC50 of in vitro LOX activity of 100 nM VLXB:StrepII after incubation with 0.1-300 nM (His)6-GmACBP4.1(33-354) WT and 10 µM C18:3-CoA (VLXB:StrepII [6]): 5 nM
- fold increase of binding with 100 µM C18:3-CoA against no acyl-CoA (VLXB:StrepII [7]): 9 fold
- fold increase of binding with C18:2-CoA against no acyl-CoA (VLXB:StrepII [7]): ≤ 4 fold
- fold increase of binding with C16:0/C18:1-CoAs against no acyl-CoA (GmPLDα1:StrepII): ≤ 9 fold
B1: (His)6-GmACBP4.1_(33–354) (domain or fragment, UniProt I1KAV2 33-354, looked up)
chain: DDNLTVTRASAAETTATRAEQFEDALKRDDAVSSDARPFEEESVVAEHGSVRIDSDGDYDDDWEGVESTELDEAFSAATAFVAAAAADRLSQKVSSDVQLQLYGLYKIATEGPCSTPQPSPLKMTARAKWQAWQKLGAMPPEDAMQKYIDIVTEIYPTWLDGSSLRNKSGDSGGHGSEAKGPMGPVFSTFVYEEEYGSDSQMEAIHGFAREGDMANLLKCIENGVSMNLKDSEGRTPLHWAVDRGHLNVTELLVGKNADVNAKDNDGQTPLHYAVTCEREAIAEYLVKHNADIYSKDNDGSSPRDICESNWPCMQHVGEEVN
notes: In pRSETA (pGM963); also called WT; recombinant GmACBP4.1 without the TM domain; source: E. coli, purified (HisTrap HP, HiTrap Q HP); not shown: (His)6, N-terminal, kept
